Measurements as given in patent US8815857B2 (Boehringer Ingelheim International GmbH, priority 2011, dated 2014).
In brackets after ≈: the same amount, converted by molar mass.

How the values were obtained:
[1] = target: T1, Recombinant human soluble guanylate cyclase (sGC), alpha 1 / beta 1 subunits, heme-free (Homo sapiens, UniProt Q02108+Q02153); assay: Molecular assay: cGMP formation by heme-free recombinant sGC (CisBio cGMP detection kit); format: biochemical; conditions: 300 pM heme-free sGC, 37° C., 60 min, cGMP readout; read-out: EC50 nM, Activity of Compounds in Molecular Assay
T1 construct: histidine tag (C); made in house; host or cells: Sf9 insect cells (baculovirus coinfection)
T1 sequence (Q02108 1-690 partner): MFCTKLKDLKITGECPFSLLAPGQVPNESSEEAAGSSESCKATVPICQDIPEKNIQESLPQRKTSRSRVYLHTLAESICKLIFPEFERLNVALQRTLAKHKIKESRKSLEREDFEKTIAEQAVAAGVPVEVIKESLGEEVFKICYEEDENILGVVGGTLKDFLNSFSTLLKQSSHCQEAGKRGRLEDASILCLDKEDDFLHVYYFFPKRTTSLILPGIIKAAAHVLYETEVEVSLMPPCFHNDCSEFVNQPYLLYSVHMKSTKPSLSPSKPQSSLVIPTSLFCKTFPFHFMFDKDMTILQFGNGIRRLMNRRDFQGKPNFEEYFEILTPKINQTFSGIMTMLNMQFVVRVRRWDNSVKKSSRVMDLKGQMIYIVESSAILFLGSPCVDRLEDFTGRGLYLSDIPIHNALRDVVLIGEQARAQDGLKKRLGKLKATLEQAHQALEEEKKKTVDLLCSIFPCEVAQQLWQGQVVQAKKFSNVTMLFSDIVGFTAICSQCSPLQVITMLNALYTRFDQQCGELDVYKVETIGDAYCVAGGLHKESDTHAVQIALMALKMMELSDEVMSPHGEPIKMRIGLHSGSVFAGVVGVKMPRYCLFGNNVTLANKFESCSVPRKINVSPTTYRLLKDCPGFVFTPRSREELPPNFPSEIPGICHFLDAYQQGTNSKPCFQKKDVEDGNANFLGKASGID
T1 sequence (Q02153 1-619): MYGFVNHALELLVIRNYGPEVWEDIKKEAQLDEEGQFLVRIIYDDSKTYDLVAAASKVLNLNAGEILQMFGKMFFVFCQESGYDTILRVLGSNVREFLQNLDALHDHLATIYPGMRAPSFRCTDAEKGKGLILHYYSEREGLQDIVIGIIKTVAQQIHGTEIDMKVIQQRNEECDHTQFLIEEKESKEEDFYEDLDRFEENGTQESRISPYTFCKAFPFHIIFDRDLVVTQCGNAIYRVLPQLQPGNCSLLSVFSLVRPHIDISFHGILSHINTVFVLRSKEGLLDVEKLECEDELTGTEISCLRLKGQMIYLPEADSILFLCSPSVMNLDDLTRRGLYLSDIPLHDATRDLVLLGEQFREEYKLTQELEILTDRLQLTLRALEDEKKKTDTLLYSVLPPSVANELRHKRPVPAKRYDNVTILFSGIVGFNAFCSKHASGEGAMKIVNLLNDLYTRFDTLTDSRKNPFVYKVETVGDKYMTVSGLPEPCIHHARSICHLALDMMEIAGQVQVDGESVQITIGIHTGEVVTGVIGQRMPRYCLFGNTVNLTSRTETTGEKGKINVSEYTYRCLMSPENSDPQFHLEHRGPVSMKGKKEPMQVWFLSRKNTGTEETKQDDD
Protocol: Recombinant human soluble guanylate cyclase (sGC) is purified from Sf9 insect cells coinfected with baculoviruses expressing the alpha 1 or beta 1 subunit of sGC, both with a C-terminal histidine tag. Heme-free sGC is prepared by treating cell lysate with a final concentration of 0.5% Tween 20 prior to purification on a nickel affinity column.
sGC catalyzes the conversion of guanosine-5′-triphosphate (GTP) to cyclic guanosine monophosphate (cGMP). The activity of sGC is measured in vitro using the commercially available CisBio cGMP detection kit (catalog # 62GM2PEB) in a 384 well format. In brief, 300 pM heme-free sGC is incubated in reaction buffer (50 mM MOPS pH 6.8, 0.2 N KOH, 50 mM NaCl, 2 mM MgCl2, 0.1% BSA, 1.25 mM IBMX, 0.25 mM TCEP, 50 nM GTP) in the presence or absence of dilutions of test compounds diluted in DMSO (final concentration of 1%) in a volume of 10 microL at 37° C. for 60 min. Undiluted reaction products or an 80-fold dilution of reaction products (10 microL of either) prepared in reaction buffer containing 0.2 mM TCEP and 10 mM EDTA is mixed with 5 microL of d2-cGMP plus 5 microL of Eu^3+ cryptate-labeled anti-cGMP, each diluted in buffer containing 0.1 M KPO4 pH 7.5, 0.4 M KF, 20 mM EDTA, 0.2% BSA. After a one h incubation at room temperature in the dark, the mixtures are quantified on an EnVision plate reader (PerkinElmer) according to manufacturer instructions (laser excitation 337 nm, emission 620 and 665 nm). The ratio at each compound concentration is converted to nM cGMP using the linear portion of a calibration curve. Log compound concentration is plotted against combined undiluted and diluted nM cGMP values to determine the EC50 for each curve.

[2] = Assessment of solubility: HT solubility in pION buffer, UV spectrophotometry; conditions: 16-19 h incubation, 1.0% DMSO; for solubility: pION system solution buffer, kinetic from dmso stock
[3] = pH 4.5, pH 4.5, aqueous buffer, Solubility (pH 4.5), pH 4.5 buffer
[4] = pH 7.4, pH 7.4, aqueous buffer, Solubility (pH 7.4), pH 7.4 buffer

EC50 [1] [nM]	solubility [2, 3] [µg/mL]	solubility [2, 4] [µg/mL]	Solubility (pH 4.5) ([2]; pH 4.5 buffer) [μg/mL]	Structure (SMILES)
51	0.45 (≈ 0.843 µM)	> 53	–	Cc1cc(C(=O)N2CCCCC2)ccc1COc1ccccc1-c1csc(N2CCC(C(=O)O)C(C)C2)n1 (stereo not drawn) [Compound 42]
390	0.9 (≈ 1.69 µM)	> 53	–	Cc1ccc(OCc2ccc(C(=O)N3CCCCC3)cc2C)c(-c2csc(N3CC4C(C3)C4C(=O)O)n2)c1 (stereo not drawn) [Compound 34]
27	40 (≈ 73 µM)	42 (≈ 76.7 µM)	–	Cc1ccc(OCc2ccc(CN3CCOCC3)cc2C)c(-c2csc(N3CC4CCC(C3)C4C(=O)O)n2)c1 (stereo not drawn) [Compound 74]
2000	16 (≈ 29.9 µM)	16 (≈ 29.9 µM)	–	Cc1cc(CN2CCC(O)CC2)ccc1COc1c(C)cccc1-c1csc(N2CCC(C(=O)O)CC2)n1 [Compound 54]
17	31 (≈ 53.1 µM)	> 58	–	Cc1cc(CN(C)C2CCS(=O)(=O)C2)ccc1COc1c(C)cccc1-c1csc(N2CCC(C(=O)O)CC2)n1 (stereo not drawn) [Compound 123]
520	18 (≈ 33.6 µM)	> 53	–	Cc1ccc(OCc2ccc(CN3CCOCC3)cc2C)c(-c2csc(N3CC[C@@H](C(=O)O)[C@@H](C)C3)n2)c1 (single isomer, unassigned) [Compound 50]
760	> 54	> 54	–	Cc1ccc(OCc2ccc(CN3CCOCC3)cc2C)c(-c2csc(NCCCC(=O)O)n2)c1 [Compound 4]
1200	1.4 (≈ 2.24 µM)	> 62	–	Cc1cc(CN2CCS(=O)(=O)CC2)ccc1COc1ccccc1-c1csc(N2CCC(C(=O)O)C(C(F)(F)F)C2)n1 (stereo not drawn) [Compound 150]
1100	> 58	31 (≈ 57.9 µM)	–	Cc1ccc(OCc2ccc(CN3CCOCC3)cc2C)c(-c2csc(N3CCC(C)(C(=O)O)CC3)n2)c1 [Compound 51]
140	> 64	> 64	–	Cc1cccc(-c2csc(N3CCC(C(=O)O)CC3)n2)c1OCc1ccc(CN2CCOCC2)cc1C#N [Compound 36]
640	> 53	> 53	–	Cc1cc(CN2CCCC(O)C2)ccc1COc1c(C)cccc1-c1csc(N2CCC(C(=O)O)CC2)n1 (stereo not drawn) [Compound 53]
78	20 (≈ 35.5 µM)	12 (≈ 21.3 µM)	–	COCCCN(C)C(=O)c1ccc(COc2ccc(C)cc2-c2csc(N3CCC(C(=O)O)CC3)n2)c(C#N)c1 [Compound 92]
100	0.3 (≈ 0.527 µM)	> 56	–	Cc1ccc(OCc2ccc(C(=O)N3CCC(F)(F)CC3)cc2C)c(-c2csc(N3CCC(C(=O)O)CC3)n2)c1 [Compound 106]
3200	> 56	> 56	–	Cc1ccc(OCc2ccc(CN3CCOCC3)cc2C)c(-c2csc(N3CCC(CC(=O)O)C3)n2)c1 (stereo not drawn) [Compound 23]
550	> 67	> 67	–	Cc1ccc(OCc2ccc(CN(C)CC3CCOCC3)cc2C)c(-c2csc(N3CCC(C(=O)O)CC3)n2)c1 [Compound 96]
12000	42 (≈ 76.7 µM)	> 62	–	Cc1ccc(OCc2ccc(C(=O)N3CCCCC3)cc2C)c(-c2csc(N3CCC(C(=O)O)C(C)C3)n2)c1 (stereo not drawn) [Compound 71]
730	36 (≈ 67.6 µM)	> 57	–	Cc1cc(CN2CCOCC2)ccc1COc1ccc(C#N)cc1-c1csc(N2CCC(C(=O)O)CC2)n1 [Compound 168]
7800	> 60	> 60	–	Cc1cc(CN2CCOCC2)ccc1COc1ccc(C#N)cc1-c1csc(N2CC3C(C2)C3C(=O)O)n1 (stereo not drawn) [Compound 33]
1600	0.2 (≈ 0.373 µM)	29 (≈ 54 µM)	–	Cc1cc(C(=O)N2CCCCC2)ccc1COc1ccc(F)cc1-c1csc([C@H]2CC[C@@H](C(=O)O)CC2)n1 [Compound 56]
380	–	> 62	0.1	Cc1cc(C(=O)N2CCCCC2)ccc1COc1ccc(Cl)cc1-c1csc(N2CCC(C(=O)O)C(C(F)(F)F)C2)n1 (stereo not drawn) [Compound 149]
43	0.2 (≈ 0.314 µM)	> 63	–	Cc1ccc(OCc2ccc(CN3CCS(=O)(=O)CC3)cc2C)c(-c2csc(N3CCC(C(=O)O)CC3C(F)(F)F)n2)c1 (stereo not drawn) [Compound 153]
4.8	0.5 (≈ 0.915 µM)	> 54	–	Cc1cc(CN2CCOCC2)ccc1COc1ccc(C#N)cc1-c1csc(N2CCC(C(=O)O)C(C)C2)n1 (stereo not drawn) [Compound 72]
22	30 (≈ 55.3 µM)	> 65	–	Cc1cc(CN2CCOCC2)ccc1COc1c(Cl)cccc1-c1csc(N2CCC(C(=O)O)CC2)n1 [Compound 62]
450	1 (≈ 1.84 µM)	> 54	–	Cc1cc(C(=O)N2CCCCC2)ccc1COc1c(C#N)cccc1-c1csc(N2CCC(C(=O)O)CC2)n1 [Compound 66]
960	36 (≈ 67.2 µM)	> 53	–	Cc1ccc(OCc2ccc(CN3CCOCC3)cc2C)c(-c2csc(N[C@H]3CC[C@@H](C(=O)O)CC3)n2)c1 [Compound 201]
52	41 (≈ 77 µM)	> 64	–	Cc1ccc(OCc2ccc(CN3CCOCC3)cc2C#N)c(-c2csc(N3CCC(C(=O)O)CC3)n2)c1 [Compound 167]
39	0.5 (≈ 0.93 µM)	> 53	–	Cc1cc(C(=O)N2CCCCC2)ccc1COc1ccc(F)cc1-c1csc(N2CCC(C(=O)O)CC2)n1 [Compound 59]
440	> 64	5.2 (≈ 9.8 µM)	–	Cc1ccc(OCc2ccc(CN3CCCCC3)cc2C#N)c(-c2csc(N3CCC(C(=O)O)CC3)n2)c1 [Compound 29]
2100	0.15 (≈ 0.282 µM)	> 53	–	Cc1ccc(OCc2ccc(C(=O)N3CCCCC3)cc2C)c(-c2csc([C@H]3CC[C@@H](C(=O)O)CC3)n2)c1 [Compound 37]

Structure (SMILES)	EC50 [1] [nM]	solubility [2, 3] [µg/mL]	solubility [2, 4] [µg/mL]	Solubility (pH 4.5) ([2]; pH 4.5 buffer) [μg/mL]
Cc1ccc(OCc2ccc(CN3CCS(=O)(=O)CC3)cc2C)c(-c2csc(N3C4CCC3CC(C(=O)O)C4)n2)c1 (stereo not drawn) [Compound 137]	64	0.95 (≈ 1.59 µM)	> 59	–
Cc1cc(C(=O)N2CCCCC2)ccc1COc1ccc(C#N)cc1-c1csc(N2C3CCC2CC(C(=O)O)C3)n1 (stereo not drawn) [Compound 109]	1500	0.65 (≈ 1.14 µM)	> 56	–
